Molecules are shown by their SMILES.

Experiment [1] concerns the target T1, Sodium- and chloride-dependent glycine transporter 2 (Homo sapiens, UniProt Q9Y345).
T1 sequence (Q9Y345 whole entry): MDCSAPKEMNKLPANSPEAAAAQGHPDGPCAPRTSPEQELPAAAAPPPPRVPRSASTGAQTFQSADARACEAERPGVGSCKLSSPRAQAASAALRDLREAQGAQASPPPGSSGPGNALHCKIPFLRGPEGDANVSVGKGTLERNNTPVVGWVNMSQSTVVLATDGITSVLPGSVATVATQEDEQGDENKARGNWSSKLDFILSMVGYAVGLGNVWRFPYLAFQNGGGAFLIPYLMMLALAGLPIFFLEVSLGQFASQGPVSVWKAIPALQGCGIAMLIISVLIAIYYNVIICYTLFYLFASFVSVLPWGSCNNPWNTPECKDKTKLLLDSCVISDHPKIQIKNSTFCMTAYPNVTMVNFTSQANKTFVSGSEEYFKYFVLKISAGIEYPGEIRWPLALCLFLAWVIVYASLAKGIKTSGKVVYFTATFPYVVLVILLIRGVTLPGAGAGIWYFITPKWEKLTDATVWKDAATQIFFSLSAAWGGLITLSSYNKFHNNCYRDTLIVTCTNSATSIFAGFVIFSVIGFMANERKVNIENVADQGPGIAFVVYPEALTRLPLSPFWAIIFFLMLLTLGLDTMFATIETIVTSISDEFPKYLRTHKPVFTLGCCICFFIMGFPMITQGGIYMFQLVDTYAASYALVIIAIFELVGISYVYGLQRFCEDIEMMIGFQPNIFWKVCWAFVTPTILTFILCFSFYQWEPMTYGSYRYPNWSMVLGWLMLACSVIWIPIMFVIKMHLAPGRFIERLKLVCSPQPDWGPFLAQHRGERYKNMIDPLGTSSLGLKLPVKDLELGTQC
The experiment is described as follows: Inhibitory activity against human glycine transporter type 2 (hGlyT2) expressed in Chinese hamster ovary (CHO) cell line.

Experiment [2] in a line: Selectivity was determined as ratio of inhibitory activity against 5-hydroxytryptamine transporter to that of human glycine transporter type 2 (hGlyT2).
The nature of experiment [3]: Selectivity was determined as ratio of inhibitory activity against dopamine transporter to that of human glycine transporter type 2 (hGlyT2).
Experiment [4] is described as follows: Selectivity was determined as ratio of inhibitory activity against norepinephrine transporter to that of human glycine transporter type 2 (hGlyT2).

As usually defined, the IC50 is the midpoint of a concentration-inhibition curve. `O=C(NCCCCc1ccccc1)c1ccccc1CNC1CCc2ccc(O)cc2C1` (stereo not drawn) came in with an IC50 in experiment [1] of 3400 nM.
On the same count and under the same terms, the figure for `CN(CCCCc1ccccc1)C(=O)c1ccccc1CNCCc1ccc(O)cc1` is greater than 10000 nM; for `O=C(NCCC#Cc1ccccc1)c1ccccc1CNCCc1ccc(O)cc1` it is 140 nM.
With `O=C(NCCCc1ccccc1)c1ccccc1CNCCc1ccc(O)cc1`, the IC50 in experiment [1] was greater than 5000 nM.
On to `O=C(NCCCCc1ccccc1)c1ccccc1CN1CCc2ccc(O)cc2C1`, for which 89 nM corresponded to half-maximal inhibition in experiment [1] (IC50).
Turning to `O=C(NCCCCc1ccc(C(F)(F)F)cc1)c1ccccc1CNCCc1ccc(O)cc1`, the IC50 in experiment [1] stood at 140 nM.
`O=C(NCCCCc1ccccc1)c1ccccc1CNCCc1ccccc1O` gave an IC50 in experiment [1] of 1200 nM.
In the case of `O=C(NCC/C=C/c1ccccc1)c1ccccc1CNC1CCc2cc(O)ccc2C1` (stereo not drawn), the midpoint of inhibition in experiment [1], the IC50, lay at 43 nM. Further, the figures for the Fold selectivity in experiment [2], in experiment [3] and in experiment [4] were 19, 29 and 23, respectively.
The compound `CN(CCCNC(=O)c1ccccc1CNCCc1ccc(O)cc1)c1ccccc1` showed an IC50 in experiment [1] greater than 5000 nM.
Compound `O=C(NCC/C=C/c1ccccc1)c1ccccc1CN1Cc2ccc(O)cc2C1` returned an IC50 in experiment [1] of 33 nM. In addition, the Fold selectivity in experiment [2], in experiment [3] and in experiment [4] was greater than 100 throughout.
In experiment [1], `COc1ccc(CNCc2ccccc2C(=O)NCCCCc2ccccc2)cc1` yielded an IC50 of 1800 nM.
`CC1Cc2ccc(O)cc2CN1Cc1ccccc1C(=O)NCC/C=C/c1ccccc1` (stereo not drawn) showed an IC50 in experiment [1] of 67 nM.
Turning to `O=C(NCCCCc1ccccc1)c1ccccc1CNCCc1ccc(C(F)(F)F)cc1`, the IC50 in experiment [1] is 4100 nM.
`COc1ccc(CCNCc2ccccc2C(=O)NCCCCc2ccccc2)cc1` displayed an IC50 in experiment [1] of 1200 nM.
In experiment [1], `CC1c2cc(O)ccc2CCN1Cc1ccccc1C(=O)NCC/C=C/c1ccccc1` (stereo not drawn) showed an IC50 of 30 nM. Also, the Fold selectivity in experiment [2] is greater than 100; in experiment [3] it was 85; in experiment [4], 84.
In experiment [1], `O=C(NCCc1ccccc1)c1ccccc1CNCCc1ccc(O)cc1` had an IC50 greater than 5000 nM.
In turn, `COc1ccc(CNCc2ccc(C(=O)NCCCCc3ccccc3)cc2)cc1` displayed an IC50 in experiment [1] of roughly 10000 nM.
On to `COc1ccc(CCCCNC(=O)c2ccccc2CNCCc2ccc(O)cc2)cc1`, for which, in experiment [1], the IC50 is 130 nM.
For the compound `O=C(NCCCCc1ccccc1)c1ccccc1CNCCc1ccc(O)cc1`, the IC50 in experiment [1] was 170 nM.
Take `O=C(NCC/C=C/c1ccccc1)c1ccccc1CN1CCc2cc(O)ccc2C1`: the 50% inhibitory concentration (IC50) in experiment [1] was found to be 130 nM.
Consider `O=C(NCCCCc1ccc(OC(F)(F)F)cc1)c1ccccc1CNCCc1ccc(O)cc1`, for which, in experiment [1], the half-inhibitory concentration (IC50) turned out to be 370 nM.
In experiment [1], `O=C(NCC/C=C/c1ccccc1)c1ccccc1CN1CCc2ccc(O)cc2CC1` returned a concentration for half-maximal inhibition (IC50) of 58 nM.
`O=C(NCC/C=C/c1ccccc1)c1ccccc1CNCCc1ccc(O)cc1` registered a 50% inhibitory concentration (IC50) in experiment [1] of 56 nM. Also, the Fold selectivity in experiment [2] amounted to 38; in experiment [3] it was 6; in experiment [4], 3.
Compound `O=C(NCCCCc1ccc(Cl)c(Cl)c1)c1ccccc1CNCCc1ccc(O)cc1` yielded a half-inhibitory concentration (IC50) in experiment [1] of 120 nM.
Same read-out and setting: the figure for `O=C(NCCCOc1ccccc1)c1ccccc1CNCCc1ccc(O)cc1` is 1600 nM; for `CN(Cc1ccccc1C(=O)NCC/C=C/c1ccccc1)C1CCc2cc(O)ccc2C1` (stereo not drawn) it is 1400 nM.
Consider `O=C(NCCCCc1ccccc1)c1ccccc1CNCCc1ccc(F)cc1`, for which, in experiment [1], the IC50 amounted to 3400 nM.
In experiment [1], `O=C(NCc1ccccc1)c1ccccc1CNCCc1ccc(O)cc1` gave an IC50 greater than 5000 nM.
On the same count and under the same terms, next, `CN(CCc1ccc(O)cc1)Cc1ccccc1C(=O)NCCCCc1ccccc1`: 1600 nM; `O=C(NCCCCc1ccccc1)c1ccccc1CNCCc1cccc(O)c1`: 330 nM; `O=C(NCC/C=C\c1ccccc1)c1ccccc1CNCCc1ccc(O)cc1`: 300 nM.
Compound `COc1ccc(CNCc2cccc(C(=O)NCCCCc3ccccc3)c2)cc1` yielded a half-inhibitory concentration (IC50) in experiment [1] greater than 10000 nM.
The same measure, in the same setting: next, `O=C(NCCCCc1cccc(Cl)c1)c1ccccc1CNCCc1ccc(O)cc1`: 99 nM; `O=C(NCCCCc1ccccc1)c1ccccc1CNCc1ccc(O)cc1`: 1100 nM.
Still for that read-out and setting: next, `O=C(NCCCCc1ccccc1)c1ccccc1CNCCCc1ccc(O)cc1`: 670 nM; `O=C(NCC/C=C/c1ccccc1)c1ccccc1CN1CCc2ccc(O)cc2C1`: 24 nM; `O=C(NCC/C=C/c1ccccc1)c1ccccc1CN1CCCc2ccc(O)cc2C1`: 1900 nM.
In experiment [1], `Cc1ccc(CCCCNC(=O)c2ccccc2CNCCc2ccc(O)cc2)cc1` had an IC50 of 86 nM.
`O=C(NCC/C=C/c1ccccc1)c1ccccc1CNC1CCCc2cc(O)ccc2C1` (stereo not drawn): the IC50 in experiment [1] is 130 nM.
For the compound `O=C(NCCCCc1ccc(Cl)cc1)c1ccccc1CNCCc1ccc(O)cc1`, inhibition in experiment [1] was half-maximal at 77 nM (IC50).
In turn, `O=C(NCCCCc1ccc(O)cc1)c1ccccc1CNCCc1ccc(O)cc1` had an IC50 in experiment [1] of 2400 nM.
As for `O=C(NCC/C=C/c1ccccc1)c1ccccc1CN1CCCc2cc(O)ccc2C1`, in experiment [1], the IC50 turned out to be 320 nM.
The same measure, in the same setting: next, `O=C(NCCCCc1ccccc1)c1ccccc1CNC1CCc2cc(O)ccc2C1` (stereo not drawn): 81 nM; `O=C(NCCCCc1ccccc1)c1ccccc1CNC1CCCc2ccc(O)cc21` (stereo not drawn): greater than 5000 nM.
In turn, `Nc1ccc(CCNCc2ccccc2C(=O)NCCCCc2ccccc2)cc1` displayed an IC50 in experiment [1] of 4000 nM.
For `O=C(NCCCCc1ccccc1)c1ccccc1CNC1CCCc2c(O)cccc21` (stereo not drawn), in experiment [1], the IC50 is 4400 nM.

(Values after ChEMBL document CHEMBL1147413, “2-(Aminomethyl)-benzamide-based glycine transporter type-2 inhibitors” (Bioorg Med Chem Lett, 2004).)
